Assay results taken from the NIST ThermoML archive (doi:10.1016/j.jct.2015.01.012).
“And” between values parts separate entries of the source, which are not always exact repeats. Equal entries are not always repeated.

Conditions: Crystal, Calculated from knudsen effusion weight loss

CCn1c(-c2ccccc2)cc2ccccc21 [1-ethyl-2-phenylindole]
Conditions | vapor or sublimation pressure
327.18 K | 7.2e-05 kPa and 6.9e-05 kPa and 7.1e-05 kPa
329.18 K | 9.5e-05 kPa and 9.1e-05 kPa and 8.9e-05 kPa
331.09 K | 0.000115 kPa and 0.000114 kPa and 0.000119 kPa
333.18 K | 0.000144 kPa and 0.000143 kPa and 0.000145 kPa
335.18 K | 0.00019 kPa and 0.000184 kPa and 0.000192 kPa
337.19 K | 0.000239 kPa and 0.00024 kPa
339.17 K | 0.000291 kPa and 0.000287 kPa and 0.000307 kPa
341.17 K | 0.000379 kPa and 0.000368 kPa and 0.000387 kPa
343.08 K | 0.000472 kPa and 0.000478 kPa
345.16 K | 0.000624 kPa and 0.000605 kPa and 0.000625 kPa
347.08 K | 0.000779 kPa and 0.000766 kPa and 0.000775 kPa
349.08 K | 0.000974 kPa and 0.000987 kPa and 0.000986 kPa

Cn1c(-c2ccccc2)cc2ccccc21 [1-methyl-2-phenylindole]
Conditions | vapor or sublimation pressure
331.17 K | 7.4e-05 kPa and 7.7e-05 kPa
333.17 K | 0.000104 kPa and 0.000102 kPa and 9.9e-05 kPa
335.1 K | 0.00013 kPa and 0.000126 kPa and 0.000128 kPa
337.18 K | 0.000157 kPa and 0.000154 kPa and 0.000158 kPa
339.21 K | 0.000204 kPa and 0.000197 kPa and 0.000214 kPa
341.12 K | 0.000252 kPa and 0.000254 kPa and 0.000251 kPa
343.17 K | 0.000316 kPa and 0.000308 kPa and 0.000323 kPa
345.14 K | 0.000404 kPa and 0.00039 kPa and 0.000414 kPa
347.08 K | 0.000497 kPa and 0.000501 kPa and 0.000494 kPa
349.17 K | 0.000593 kPa and 0.000586 kPa and 0.000585 kPa
351.21 K | 0.000772 kPa and 0.000745 kPa
353.12 K | 0.00092 kPa and 0.000943 kPa and 0.000939 kPa

c1ccc(-c2cc3ccccc3[nH]2)cc1 [2-phenyl-1H-indole]
Conditions | vapor or sublimation pressure
360.16 K | 0.000122 kPa and 0.000119 kPa and 0.000116 kPa
362.11 K | 0.000157 kPa and 0.000149 kPa and 0.000155 kPa
364.08 K | 0.000184 kPa and 0.000182 kPa and 0.000176 kPa
366.16 K | 0.000217 kPa and 0.000214 kPa and 0.000227 kPa
368.13 K | 0.00027 kPa and 0.000262 kPa and 0.000278 kPa
370.1 K | 0.000331 kPa and 0.000325 kPa and 0.000324 kPa
372.16 K | 0.000392 kPa and 0.000393 kPa and 0.000412 kPa
374.12 K | 0.000491 kPa and 0.000456 kPa and 0.0005 kPa
376.1 K | 0.00059 kPa and 0.000574 kPa and 0.000592 kPa
378.15 K | 0.000701 kPa and 0.000693 kPa and 0.000735 kPa
380.12 K | 0.000868 kPa and 0.000885 kPa and 0.000832 kPa
382.1 K | 0.001023 kPa and 0.001052 kPa and 0.001046 kPa
